Measured values published in article PMC7377239, “Cardiovascular Effects of Polychlorinated Biphenyls and Their Major Metabolites” (Environmental Health Perspectives, 2020).
Like-named read-outs stand apart in the source and are kept apart here.

Test system: iCell cardiomyocytes (human iPSC-derived cardiomyocytes)
Assay: High-content imaging of cytotoxicity and mitochondrial integrity in iPSC-CMs
Format: cell-based
Conditions: Homo sapiens, Cardiomyocyte; for viability at 0.01 µM / activity at 0.01 µM / viability at 0.1 µM / activity at 0.1 µM / viability at 1 µM / activity at 1 µM / viability at 10 µM / activity at 10 µM / viability at 100 µM / activity at 100 µM: 0.00 µM = 100.00; for viability at 0.1 µM / activity at 0.1 µM: 0.10 µM
In short: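 This assay measured cytotoxicity and mitochondrial integrity in iPSC cardiomyocytes held in 40μL maintenance medium. After compound exposure, a 2× staining solution with Hoechst 33342 (4μg/mL) and MitoTracker™ Orange (0.4μM) was applied for 15 min at 37°C. Cells were washed, fixed with 3.7% formaldehyde, imaged on DAPI and Cy3 channels, and scored in MetaXpress®.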

[1] = 1.5 h, 90min, read-out: cm.cam.90min
[2] = 1.5 h, 90min, read-out: cm.mii.90min
[3] = 1.5 h, 90min, read-out: cm.mito.90min
[4] = 1.5 h, 90min, read-out: cm.tc.90min
[5] = 1.5 h, 90min, read-out: cm.cam.90min POD
[6] = 1.5 h, 90min, read-out: cm.mii.90min POD
[7] = 1.5 h, 90min, read-out: cm.mito.90min POD
[8] = 1.5 h, 90min, read-out: cm.tc.90min POD
[9] = 24 h, 24hrs, read-out: cm.cam.24hrs
[10] = 24 h, 24hrs, read-out: cm.mii.24hrs
[11] = 24 h, 24hrs, read-out: cm.mito.24hrs
[12] = 24 h, 24hrs, read-out: cm.tc.24hrs
[13] = 24 h, read-out: cm.cam.24hrs POD
[14] = 24 h, read-out: cm.mii.24hrs POD
[15] = 24 h, read-out: cm.mito.24hrs POD
[16] = 24 h, read-out: cm.tc.24hrs POD

Clc1ccc(Cl)c(-c2cc(Cl)ccc2Cl)c1 [PCB52]
viability at 0.01 µM [1]: 98.6% | activity at 0.01 µM [2]: 115% | activity at 0.01 µM [3]: 98.4% | viability at 0.01 µM [4]: 98.4% | viability at 0.1 µM [1]: 95.8% | activity at 0.1 µM [2]: 118% | activity at 0.1 µM [3]: 95.7% | viability at 0.1 µM [4]: 95.6% | viability at 1 µM [1]: 101% | activity at 1 µM [2]: 107% | activity at 1 µM [3]: 102% | viability at 1 µM [4]: 102% | viability at 10 µM [1]: 106% | activity at 10 µM [2]: 94.2% | activity at 10 µM [3]: 106% | viability at 10 µM [4]: 106% | viability at 100 µM [1]: 0.44% | activity at 100 µM [2]: 12.8% | activity at 100 µM [3]: 0.55% | viability at 100 µM [4]: 1.04% | minimal effective concentration [5]: 36 µM | minimal effective concentration [6]: 10.4 µM | minimal effective concentration [7]: 39.2 µM | minimal effective concentration [8]: 38.9 µM | viability at 0.01 µM [9]: 93.5% | activity at 0.01 µM [10]: 103% | activity at 0.01 µM [11]: 91.8% | viability at 0.01 µM [12]: 94.3% | viability at 0.1 µM [9]: 98.9% | activity at 0.1 µM [10]: 117% | activity at 0.1 µM [11]: 99.3% | viability at 0.1 µM [12]: 98.8% | viability at 1 µM [9]: 95.8% | activity at 1 µM [10]: 112% | activity at 1 µM [11]: 95.8% | viability at 1 µM [12]: 96.3% | viability at 10 µM [9]: 92% | activity at 10 µM [10]: 103% | activity at 10 µM [11]: 90.3% | viability at 10 µM [12]: 92.3% | viability at 100 µM [9]: 3.37% | activity at 100 µM [10]: 5.38% | activity at 100 µM [11]: 0.14% | viability at 100 µM [12]: 7.71% | minimal effective concentration [13]: 7.5 µM | minimal effective concentration [14]: 34.4 µM | minimal effective concentration [15]: 7.32 µM | minimal effective concentration [16]: 8.11 µM

Clc1ccc(Cl)c(-c2c(Cl)ccc(Cl)c2Cl)c1 [PCB95]
viability at 0.01 µM [1]: 98.2% | activity at 0.01 µM [2]: 114% | activity at 0.01 µM [3]: 97.8% | viability at 0.01 µM [4]: 97.9% | viability at 0.1 µM [1]: 95.8% | activity at 0.1 µM [2]: 100% | activity at 0.1 µM [3]: 95.4% | viability at 0.1 µM [4]: 95.4% | viability at 1 µM [1]: 93.8% | activity at 1 µM [2]: 109% | activity at 1 µM [3]: 93.2% | viability at 1 µM [4]: 93.1% | viability at 10 µM [1]: 107% | activity at 10 µM [2]: 110% | activity at 10 µM [3]: 107% | viability at 10 µM [4]: 107% | viability at 100 µM [1]: 0.65% | activity at 100 µM [2]: 92.8% | activity at 100 µM [3]: 0.97% | viability at 100 µM [4]: 1.11% | minimal effective concentration [5]: 36.6 µM | minimal effective concentration [6]: 100 µM | minimal effective concentration [7]: 39.6 µM | minimal effective concentration [8]: 38.7 µM | viability at 0.01 µM [9]: 97.2% | activity at 0.01 µM [10]: 90.3% | activity at 0.01 µM [11]: 95.7% | viability at 0.01 µM [12]: 97.3% | viability at 0.1 µM [9]: 98.9% | activity at 0.1 µM [10]: 99% | activity at 0.1 µM [11]: 99% | viability at 0.1 µM [12]: 99% | viability at 1 µM [9]: 99.8% | activity at 1 µM [10]: 100% | activity at 1 µM [11]: 97.7% | viability at 1 µM [12]: 98.7% | viability at 10 µM [9]: 93.8% | activity at 10 µM [10]: 95.1% | activity at 10 µM [11]: 92.7% | viability at 10 µM [12]: 93.5% | viability at 100 µM [9]: 1.96% | activity at 100 µM [10]: 34.3% | activity at 100 µM [11]: 1.73% | viability at 100 µM [12]: 2.9% | minimal effective concentration [13]: 8.98 µM | minimal effective concentration [14]: 22.2 µM | minimal effective concentration [15]: 8.96 µM | minimal effective concentration [16]: 8.75 µM
